From publication PMC6271698, “Immobilization of Horseradish Peroxidase on NH2-Modified Magnetic Fe3O4/SiO2 Particles and Its Application in Removal of 2,4-Dichlorophenol” (Molecules, 2014)

System: T1, Horseradish peroxidase (HRP)
T1 construct: gene PRXC1A; free enzyme
Test: colorimetric peroxidase assay, Lineweaver-Burk plot
Format: biochemical
Conditions: free enzyme, not immobilised; co-substrate H2O2 (concentration not stated); pH and temperature not stated; read-out: Kmapp

## CCN(CC)c1ccc(N)cc1 [DPD, N,N-diethyl-p-phenylenediaminesulfate]
  Km: 500 µM
